# Assay results taken from paper PMC7206119, “RIP1 inhibition blocks inflammatory diseases but not tumor growth or metastases” (Cell Death and Differentiation, 2019).
# What was measured:
# Assay in all cases: biochemical
# Parameters in all cases: DiscoverX kinase panel, active-site competition binding (KINOMEscan type), percent of control at one concentration
# Details in all cases: competition binding, percent of control
# ACVR1B = ACVR1B (Homo sapiens, UniProt P36896)
# ALK = ALK (Homo sapiens, UniProt Q9UM73)
# BRAF(V600E) = BRAF(V600E) (Homo sapiens, UniProt P15056, V600E)
# BRAF(V600E), sequence (P15056 whole entry V600E): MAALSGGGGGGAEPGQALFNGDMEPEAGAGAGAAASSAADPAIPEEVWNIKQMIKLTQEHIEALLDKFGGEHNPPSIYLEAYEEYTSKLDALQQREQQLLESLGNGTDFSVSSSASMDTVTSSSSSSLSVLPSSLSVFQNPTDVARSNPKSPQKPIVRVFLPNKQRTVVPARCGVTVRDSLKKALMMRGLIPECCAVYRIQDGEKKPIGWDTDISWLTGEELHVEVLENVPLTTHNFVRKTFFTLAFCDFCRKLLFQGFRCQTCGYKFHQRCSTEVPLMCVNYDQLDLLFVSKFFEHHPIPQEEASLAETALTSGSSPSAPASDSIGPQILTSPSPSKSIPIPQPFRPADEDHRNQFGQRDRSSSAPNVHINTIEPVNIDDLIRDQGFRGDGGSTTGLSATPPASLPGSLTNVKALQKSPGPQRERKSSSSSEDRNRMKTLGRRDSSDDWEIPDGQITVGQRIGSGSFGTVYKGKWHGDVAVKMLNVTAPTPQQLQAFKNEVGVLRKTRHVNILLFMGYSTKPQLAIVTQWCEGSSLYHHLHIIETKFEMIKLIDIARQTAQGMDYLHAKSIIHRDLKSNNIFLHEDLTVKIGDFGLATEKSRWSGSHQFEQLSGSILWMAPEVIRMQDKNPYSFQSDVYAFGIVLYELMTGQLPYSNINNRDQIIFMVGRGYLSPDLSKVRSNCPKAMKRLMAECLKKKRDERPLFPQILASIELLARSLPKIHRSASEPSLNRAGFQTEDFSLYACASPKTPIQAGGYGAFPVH
# CDK5 = CDK5 (Homo sapiens, UniProt Q00535)
# CSF1R = CSF1R (Homo sapiens, UniProt P07333)
# CSNK1A1L = CSNK1A1L (Homo sapiens, UniProt Q8N752)
# CSNK2A2 = CSNK2A2 (Homo sapiens, UniProt P19784)
# CSNK2A2, sequence (P19784 whole entry): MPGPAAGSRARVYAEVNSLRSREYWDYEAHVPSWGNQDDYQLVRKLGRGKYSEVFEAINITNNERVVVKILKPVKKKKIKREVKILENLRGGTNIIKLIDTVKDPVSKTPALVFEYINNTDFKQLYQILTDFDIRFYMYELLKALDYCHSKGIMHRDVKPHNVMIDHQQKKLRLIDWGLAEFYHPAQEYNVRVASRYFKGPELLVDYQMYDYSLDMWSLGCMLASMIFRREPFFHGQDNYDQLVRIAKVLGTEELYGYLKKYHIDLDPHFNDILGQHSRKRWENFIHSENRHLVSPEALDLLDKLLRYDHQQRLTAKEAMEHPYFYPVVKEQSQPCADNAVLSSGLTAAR
# FLT3(D835Y) = FLT3(D835Y) (Homo sapiens, UniProt P36888, D835Y)
# IKK-beta = target: T1, IKK-beta (Homo sapiens, UniProt O14920)
# T1 construct: gene IKBKB
# T1 sequence (O14920 whole entry): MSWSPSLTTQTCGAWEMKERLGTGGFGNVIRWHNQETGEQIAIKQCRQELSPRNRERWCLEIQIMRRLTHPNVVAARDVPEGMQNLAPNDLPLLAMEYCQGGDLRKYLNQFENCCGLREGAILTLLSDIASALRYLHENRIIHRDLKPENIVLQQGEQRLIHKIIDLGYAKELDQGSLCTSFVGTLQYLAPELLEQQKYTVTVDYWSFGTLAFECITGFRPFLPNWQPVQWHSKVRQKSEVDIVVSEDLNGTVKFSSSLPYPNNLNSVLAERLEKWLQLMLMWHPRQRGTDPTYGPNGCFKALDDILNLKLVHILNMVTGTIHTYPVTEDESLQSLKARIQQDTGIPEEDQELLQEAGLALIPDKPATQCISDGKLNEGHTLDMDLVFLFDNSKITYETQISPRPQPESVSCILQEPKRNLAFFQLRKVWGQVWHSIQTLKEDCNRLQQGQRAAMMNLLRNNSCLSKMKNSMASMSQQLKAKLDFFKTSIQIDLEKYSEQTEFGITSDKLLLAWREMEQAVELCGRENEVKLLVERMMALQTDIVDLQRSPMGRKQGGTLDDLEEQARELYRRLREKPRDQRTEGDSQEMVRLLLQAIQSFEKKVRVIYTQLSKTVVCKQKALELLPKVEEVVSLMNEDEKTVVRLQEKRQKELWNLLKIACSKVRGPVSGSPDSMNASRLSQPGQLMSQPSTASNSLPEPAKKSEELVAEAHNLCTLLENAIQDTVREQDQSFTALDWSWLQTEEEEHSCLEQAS
# LIMK2 = LIMK2 (Homo sapiens, UniProt P53671)
# LIMK2, sequence (P53671 whole entry): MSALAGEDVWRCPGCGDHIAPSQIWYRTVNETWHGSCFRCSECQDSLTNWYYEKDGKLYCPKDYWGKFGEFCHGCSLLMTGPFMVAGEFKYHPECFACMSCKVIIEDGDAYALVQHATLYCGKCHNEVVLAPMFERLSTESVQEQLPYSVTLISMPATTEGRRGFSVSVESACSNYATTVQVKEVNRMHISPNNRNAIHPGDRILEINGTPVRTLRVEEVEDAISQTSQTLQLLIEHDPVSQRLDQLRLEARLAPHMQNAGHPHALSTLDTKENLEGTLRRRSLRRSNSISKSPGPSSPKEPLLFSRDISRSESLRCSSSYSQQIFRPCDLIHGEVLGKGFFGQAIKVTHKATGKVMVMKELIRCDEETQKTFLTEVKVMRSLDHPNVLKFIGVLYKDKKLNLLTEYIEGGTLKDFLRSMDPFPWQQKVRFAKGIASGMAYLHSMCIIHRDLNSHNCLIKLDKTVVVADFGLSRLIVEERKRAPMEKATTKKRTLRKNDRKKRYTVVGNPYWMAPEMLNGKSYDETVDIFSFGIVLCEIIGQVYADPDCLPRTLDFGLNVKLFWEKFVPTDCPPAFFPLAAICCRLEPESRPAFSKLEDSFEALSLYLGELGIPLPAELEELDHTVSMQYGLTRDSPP
# MAP3K2 = MAP3K2 (Homo sapiens, UniProt Q9Y2U5)
# MAP4K5 = MAP4K5 (Homo sapiens, UniProt Q9Y4K4)
# MUSK = MUSK (Homo sapiens, UniProt O15146)
# NLK = NLK (Homo sapiens, UniProt Q9UBE8)
# PKMYT1 = PKMYT1 (Homo sapiens, UniProt Q99640)
# ROCK1 = ROCK1 (Homo sapiens, UniProt Q13464)
# SLK = SLK (Homo sapiens, UniProt Q9H2G2)
# SLK, sequence (Q9H2G2 whole entry): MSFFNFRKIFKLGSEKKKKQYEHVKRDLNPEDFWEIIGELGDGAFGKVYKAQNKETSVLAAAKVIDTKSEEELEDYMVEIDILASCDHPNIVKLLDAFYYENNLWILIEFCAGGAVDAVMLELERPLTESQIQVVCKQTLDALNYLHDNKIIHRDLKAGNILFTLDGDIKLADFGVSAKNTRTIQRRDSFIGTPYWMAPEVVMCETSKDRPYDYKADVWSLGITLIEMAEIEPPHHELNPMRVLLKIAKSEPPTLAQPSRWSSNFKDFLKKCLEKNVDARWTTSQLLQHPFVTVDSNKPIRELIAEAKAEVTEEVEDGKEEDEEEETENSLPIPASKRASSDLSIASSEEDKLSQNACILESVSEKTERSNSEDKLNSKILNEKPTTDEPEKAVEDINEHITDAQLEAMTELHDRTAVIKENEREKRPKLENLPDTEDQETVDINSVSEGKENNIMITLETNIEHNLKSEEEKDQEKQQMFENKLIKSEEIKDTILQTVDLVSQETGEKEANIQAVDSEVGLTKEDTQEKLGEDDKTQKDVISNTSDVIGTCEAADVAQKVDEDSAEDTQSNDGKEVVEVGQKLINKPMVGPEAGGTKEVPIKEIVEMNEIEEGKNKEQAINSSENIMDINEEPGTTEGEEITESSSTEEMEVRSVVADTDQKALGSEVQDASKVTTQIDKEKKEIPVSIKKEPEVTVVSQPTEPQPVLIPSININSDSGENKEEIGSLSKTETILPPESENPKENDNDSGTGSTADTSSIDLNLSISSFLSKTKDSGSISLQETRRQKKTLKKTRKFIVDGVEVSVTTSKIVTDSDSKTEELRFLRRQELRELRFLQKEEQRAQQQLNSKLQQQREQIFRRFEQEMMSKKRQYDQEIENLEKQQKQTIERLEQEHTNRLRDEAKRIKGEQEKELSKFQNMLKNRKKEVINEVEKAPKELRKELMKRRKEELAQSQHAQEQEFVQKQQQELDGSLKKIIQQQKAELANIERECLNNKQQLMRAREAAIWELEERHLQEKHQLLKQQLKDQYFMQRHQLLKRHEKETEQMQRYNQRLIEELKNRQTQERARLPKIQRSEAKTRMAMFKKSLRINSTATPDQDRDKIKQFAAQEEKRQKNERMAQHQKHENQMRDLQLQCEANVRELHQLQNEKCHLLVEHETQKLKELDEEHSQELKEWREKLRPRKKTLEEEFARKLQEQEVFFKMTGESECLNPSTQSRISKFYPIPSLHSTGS
# SRPK3 = SRPK3 (Homo sapiens, UniProt Q9UPE1)
# SRPK3, sequence (Q9UPE1 whole entry): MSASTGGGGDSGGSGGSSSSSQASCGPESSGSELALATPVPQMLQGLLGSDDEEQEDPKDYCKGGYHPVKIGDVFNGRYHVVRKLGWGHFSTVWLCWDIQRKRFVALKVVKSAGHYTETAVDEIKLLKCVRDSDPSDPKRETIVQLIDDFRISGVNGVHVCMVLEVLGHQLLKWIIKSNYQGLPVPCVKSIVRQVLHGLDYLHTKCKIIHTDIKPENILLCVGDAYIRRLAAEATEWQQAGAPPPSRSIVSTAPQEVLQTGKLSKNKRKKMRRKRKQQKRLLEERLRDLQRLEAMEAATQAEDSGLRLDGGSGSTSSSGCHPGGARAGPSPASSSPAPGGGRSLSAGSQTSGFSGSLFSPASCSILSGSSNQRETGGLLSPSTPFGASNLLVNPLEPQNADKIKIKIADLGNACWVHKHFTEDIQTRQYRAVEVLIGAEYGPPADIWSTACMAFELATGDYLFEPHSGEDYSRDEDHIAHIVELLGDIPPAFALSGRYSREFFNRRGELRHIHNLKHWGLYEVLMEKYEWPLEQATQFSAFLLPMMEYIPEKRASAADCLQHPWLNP
# TAOK1 = TAOK1 (Homo sapiens, UniProt Q7L7X3)
# ULK2 = ULK2 (Homo sapiens, UniProt Q8IYT8)
# ZAK = target: T2, ZAK (Homo sapiens, UniProt Q9NYL2)
# T2 construct: gene MAP3K20
# ACVR1B, sequence (P36896 whole entry): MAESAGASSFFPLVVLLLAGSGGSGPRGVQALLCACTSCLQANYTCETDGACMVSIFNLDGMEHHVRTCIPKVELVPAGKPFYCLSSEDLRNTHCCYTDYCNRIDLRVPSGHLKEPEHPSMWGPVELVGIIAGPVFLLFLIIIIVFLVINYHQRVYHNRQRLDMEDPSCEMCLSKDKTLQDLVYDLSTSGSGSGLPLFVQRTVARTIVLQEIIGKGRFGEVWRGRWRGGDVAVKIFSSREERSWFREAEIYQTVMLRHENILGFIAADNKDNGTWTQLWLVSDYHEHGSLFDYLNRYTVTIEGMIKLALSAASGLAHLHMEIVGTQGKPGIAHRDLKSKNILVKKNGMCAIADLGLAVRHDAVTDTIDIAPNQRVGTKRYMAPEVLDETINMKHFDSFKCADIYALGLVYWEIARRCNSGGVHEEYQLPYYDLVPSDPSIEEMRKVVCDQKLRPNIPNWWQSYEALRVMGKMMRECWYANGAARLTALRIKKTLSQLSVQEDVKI
compound,measurement,setting,value
"COc1cc2c(cn1)N(C)C(=O)[C@@H](NC(=O)c1nc3n(n1)[C@H](c1ccccc1)CC3)CC2 [GNE684, (S)-N-((S)-7-methoxy-1-methyl-2-oxo-2,3,4,5-tetrahydro-1H-pyrido[3,4-b]azepin-3-yl)-5-phenyl-6,7-dihydro-5H-pyrrolo[1,2-b][1,2,4]triazole-2-carboxamide]",remaining binding at 10 µM,ACVR1B,93%
same,remaining binding at 10 µM,ALK,81%
same,remaining binding at 10 µM,BRAF(V600E),100%
same,remaining binding at 10 µM,CDK5,93%
same,remaining binding at 10 µM,CSF1R,100%
same,remaining binding at 10 µM,CSNK1A1L,100%
same,remaining binding at 10 µM,CSNK2A2,85%
same,remaining binding at 10 µM,FLT3(D835Y),100%
same,remaining binding at 10 µM,IKK-beta,100%
same,remaining binding at 10 µM,LIMK2,32%
same,remaining binding at 10 µM,MAP3K2,76%
same,remaining binding at 10 µM,MAP4K5,91%
same,remaining binding at 10 µM,MUSK,98%
same,remaining binding at 10 µM,NLK,94%
same,remaining binding at 10 µM,PKMYT1,99%
same,remaining binding at 10 µM,ROCK1,100%
same,remaining binding at 10 µM,SLK,100%
same,remaining binding at 10 µM,SRPK3,100%
same,remaining binding at 10 µM,TAOK1,100%
same,remaining binding at 10 µM,ULK2,100%
same,remaining binding at 10 µM,ZAK,99%
